Broadly, the IC50 is the concentration needed to halve the response being measured. A higher IC50 goes with lower potency.

Some results are limits rather than exact numbers.

The experiment is described as follows: Inhibition of C-terminal Avi/His-tagged IL-17A (1 to 155 residues) (unknown origin) expressed in baculovirus infected insect cells binding with FLAG-tagged/Thrombin cleavage site fused IL-17RA (1 to317 residues) N206D/N256D mutant (unknown origin) expressed in baculovirus infected insect cells measured after 2 hrs by AlphaLISA method. Details: species or system Homo sapiens. (Alpha assays give light when donor and acceptor beads are brought close together.)

With `COC[C@H](c1cnn2cc([C@@H](NC(=O)c3nonc3C(F)(F)F)C3CCC(F)(F)CC3)nc2c1)N1C[C@@H](C(F)(F)F)NC1=O`, the IC50 was less than 9.45 nM.

For `COC[C@H](c1cnn2cc([C@@H](NC(=O)c3conc3C3CC3)C3CCC(F)(F)CC3)nc2c1)N1C[C@@H](C(F)(F)F)NC1=O`, the IC50 is less than 9.45 nM.

In turn, `O=C(N[C@H](c1cn2ncc(CN3C[C@@H](C(F)(F)F)NC3=O)cc2n1)C1CCC(F)(F)CC1)c1nonc1C1CC1` had a 50% inhibitory concentration (IC50) of less than 9.45 nM.

As to `O=C(N[C@H](c1cn2ncc(CN3C[C@@H](C(F)(F)F)NC3=O)cc2n1)C1CCC(F)(F)CC1)c1nonc1C(F)(F)F`, the IC50 was less than 9.45 nM.

Consider `CC(C)c1nonc1C(=O)N[C@H](c1cn2ncc(CN3C[C@@H](C(F)(F)F)NC3=O)cc2n1)C1CCC(F)(F)CC1`, for which the IC50 was less than 9.45 nM.

As to `COC[C@H](c1cnn2cc([C@@H](NC(=O)c3nonc3C(F)F)C3CCC(F)(F)CC3)nc2c1)N1C[C@@H](C(F)(F)F)NC1=O`, the IC50 was less than 9.45 nM.

Values taken from ChEMBL document CHEMBL4828772, “Imidazo[1,2-b]pyridazines as IL-17A Inhibitors for Treating Psoriasis, Rheumatoid Arthritis, and Multiple Sclerosis” (ACS Med Chem Lett, 2021).
